Reference: PMC8556396, “Statin-mediated disruption of Rho GTPase prenylation and activity inhibits respiratory syncytial virus infection” (Communications Biology, 2021)
Values joined by “and” are separate entries in the source; they are usually repeats but may differ in a detail not shown here. Identical values can stand only once. “Also recorded” adds a separate entry of the source.

Assays:
RSV-GFP [1] = assay: microbe, parasite or virus in culture; type: cell-based, Respiratory syncytial virus; details: human respiratory syncytial virus, HEp-2, read-out: RSV-GFP inhibition (%)
Method: The following morning, cells were washed twice with serum-free EMEM and treated with RSV-GFP (MOI 0.5) in a minimal volume of serum-free media for 90 min under frequent agitation. Unbound virus was then removed and replaced with fresh serum-containing EMEM. All drug additions were performed 2 h post-viral exposure, unless otherwise stated.
(§1) Automated quantification of infection rates from fluorescent images were performed in CellProfiler (v2.2.0)[86]. Major steps in the image analysis pipeline included: (1) background subtraction and smoothing, (2) segmentation of nuclei, (3) segmentation of GFP-fluorescent area, (4) object masking, and (5) measurement of nuclear number, size, and intensity. Infection rate was quantified from the ratio of nuclei within GFP-fluorescent area to the total number of nuclei (Fig. 1b). This method of analysis accounts for in vitro syncytium formation induced by RSV, whereby a single infected cell may arise from the fusion of multiple cells. Mean nuclear fluorescent intensity and size was quantified as a measure of cell viability.
The MicroSource […] Collection (Discovery Systems Inc.) consisting of 2400 compounds was screened using the previously outlined RSV-GFP infection assay protocol. Robot-assisted addition of drugs was performed within 1 h of RSV-GFP infection and infection rates were assayed 48 h p.i. Drugs were provided as 10 mM stocks in DMSO and serial diluted to a final concentration of 10 µM, resulting in a final DMSO concentration of 0.1% v/v. […] Hits were selected based on the criteria that: (a) the tested drug caused a >50% reduction in infection rate and (b) was not overtly cytotoxic (<10% change in mean nuclear intensity relative to DMSO control). Z-factors were calculated on a per-plate basis to monitor assay quality.

RSV-GFP [2] = assay: RSV-GFP infection of HEp-2 cells, automated imaging, dose-response; type: cell-based, Respiratory syncytial virus; details: for EC50: HEp-2, 2 h; for inhibition at 0.75 µM: read-out: RSV-GFP inhibition (%), log Conc (uM) -0.12494; for inhibition at 0.5 µM: read-out: RSV-GFP inhibition (%), log Conc (uM) -0.30103; for inhibition at 0.25 µM: read-out: RSV-GFP inhibition (%), log Conc (uM) -0.60206; for inhibition at 0.1 µM: read-out: RSV-GFP inhibition (%), log Conc (uM) -1; for inhibition at 0.05 µM: read-out: RSV-GFP inhibition (%), log Conc (uM) -1.30103; for inhibition at 0.01 µM: read-out: RSV-GFP inhibition (%), log Conc (uM) -2; for RSV-GFP inhibition (%): 48 h p.i.
Method: HEp-2 cells were seeded to black, flat, microclear-bottom 96-well plates (655096, Greiner Bio-One) at a density of 5000 cells per well and incubated at 37 °C/5% CO2 overnight. The following morning, cells were washed twice with serum-free EMEM and treated with RSV-GFP (MOI 0.5) in a minimal volume of serum-free media for 90 min under frequent agitation. Unbound virus was then removed and replaced with fresh serum-containing EMEM. All drug additions were performed 2 h post-viral exposure, unless otherwise stated. Nuclei were stained with Hoechst 33342 (H3570, Thermo Fisher Scientific) (at a final concentration of 1 µg/mL) 48 h p.i. and imaging was performed using the Cellomics ArrayScan VTI HCS Reader at ×10 magnification (SPARC BioCentre, The Hospital for Sick Children, Toronto, ON).
as §1, with “viability. […]” for “viability.”

RSV A2 [3] = assay: Immunofluorescence staining and microscopy of RSV F and N
Method: HEp-2 cells were seeded to No. 1 glass coverslips (1014355117NR1, Thermo Fisher Scientific) for high-resolution confocal microscopy, or black, flat, microclear-bottom 96-well plates (655096, Greiner Bio-One) for high-throughput quantification of RSV F and N immunofluorescence. Cells were infected with RSV A2 (MOI 0.5). At 48 h p.i., cells were fixed in 4% paraformaldehyde for 30 min and permeabilized with 0.3% Triton X-100 for 10 min at room temperature. F and N proteins were probed using mouse anti-RSV F (RSV3216) and mouse anti-RSV N (RSV3132) mAbs (Bio-Rad Antibodies) diluted 1:500 in PBS + 0.1% Tween-20 (PBST), or mouse anti-RSV F mAb Alexa Fluor 488 conjugate (Millipore Sigma, 133/1H) diluted 1:200 in PBST over a 1-h incubation at room temperature. This was followed by detection with secondary anti-mouse Fab fragments conjugated to Alexa Fluor 488 (4408) or 647 (4410) (Cell Signaling Technology) diluted 1:1000 in PBST over a 1-h incubation at room temperature. Fluorescent images were acquired using either the Cellomics ArrayScan VTI HCS Reader at ×10 magnification (for quantification) or Olympus IX81 Spinning Disk Confocal microscope at ×60 magnification with oil immersion (for high-resolution images). F and N immunofluorescence was quantified in CellProfiler and normalized to total nuclear count.

RSV A2 [4] = assay: Quantification of infectious virus production (plaque assay); type: cell-based, Respiratory syncytial virus; details: Fig 7A; Rhosin 50 uM, EHT 1864 20 uM, ML 141 10 uM; replicate values
Method: HEp-2 cells were seeded to six-well plates at a density of 1 × 10^6 cells per well and incubated overnight at 37 °C/5% CO2. The following morning, cells were infected with RSV A2 (MOI 1.0) and treated with drugs 2 h post-viral exposure. The supernatant, containing progeny virions, was collected 48 h p.i., snap frozen, and stored at −80 °C. Quantification of infectious virus particles was performed by a traditional plaque assay. HEp-2 cells were seeded to six-well plates at a density of 1.5 × 10^6 cells per well and grown to 90% confluency. Cells were incubated with serial dilutions of the collected supernatants for 90 min at 37 °C/5% CO2 under frequent agitation. The inoculant was then removed and replaced with 4 mL of 1:1 4% FBS DMEM-F12/1% agarose. Plates were incubated for 5 days at 37 °C/5% CO2. Cells were then fixed with 10% formalin for 30 min at room temperature. After fixation and removal of agarose from each well, the cells were stained with 0.05% neutral red and plaques were quantified under a dissecting microscope.

[5] = human respiratory syncytial virus, HEp-2, RSV-GFP MOI 0.5, treated 2 h post-viral exposure
[6] = human respiratory syncytial virus, HEp-2, 48 h, replicate values
[7] = GGPP 10.0 µM in the presence of atorvastatin 3.5 µM

C[C@H]1O[C@@H](O[C@H]2[C@@H](O)C[C@H](O[C@H]3[C@@H](O)C[C@H](O[C@H]4CC[C@@]5(C)[C@H](CC[C@@H]6[C@@H]5C[C@@H](O)[C@]5(C)[C@@H](C7=CC(=O)OC7)CC[C@]65O)C4)O[C@@H]3C)O[C@@H]2C)C[C@H](O)[C@@H]1O [Digoxin]
inhibition at 10 µM (RSV-GFP [1]): 99.1%
EC50 (RSV-GFP [2]; [5]): 26 nM
inhibition at 0.75 µM (RSV-GFP [2]; [6]): 99.9%
inhibition at 0.5 µM (RSV-GFP [2]; [6]): 100%
inhibition at 0.25 µM (RSV-GFP [2]; [6]): 86.5%
inhibition at 0.1 µM (RSV-GFP [2]; [6]): 85.5%
inhibition at 0.05 µM (RSV-GFP [2]; [6]): 68.3%
inhibition at 0.01 µM (RSV-GFP [2]; [6]): 25.2%
inhibition at 0.0075 µM (RSV-GFP [2]; human respiratory syncytial virus, HEp-2, 48 h, read-out: RSV-GFP inhibition (%), log Conc (uM) -2.12494, replicate values): 18%
inhibition at 0.001 µM (RSV-GFP [2]; human respiratory syncytial virus, HEp-2, 48 h, read-out: RSV-GFP inhibition (%), log Conc (uM) -3, replicate values): 9.48%

CC1(O)CCOC(=O)C1 (racemic) [Mevalonolactone, DL-mevalonolactone]
effect of mevalonolactone co-treatment in statin-treated cells (RSV A2 [3]; mevalonolactone 1 mM with atorvastatin 3.5 µM or simvastatin 1.5 µM): restore viral protein intensity to DMSO (0.1% v/v) baseline

N[C@H](Cc1c[nH]c2ccccc12)C(=O)N/N=C/c1ccc2nccnc2c1 [Rhosin]
Virus titre (log10 PFU/mL) (RSV A2 [4]): 5.176 log10 PFU/mL and 5.204 log10 PFU/mL and 5.079 log10 PFU/mL and 5.322 log10 PFU/mL

O=C(Nc1ccc([N+](=O)[O-])cc1Cl)c1cc(Cl)ccc1O [Niclosamide]
inhibition at 10 µM (RSV-GFP [1]): 93.9%
EC50 (RSV-GFP [2]; [5]): 443 nM
inhibition at 0.75 µM (RSV-GFP [2]; [6]): 73.9%
inhibition at 0.55 µM (RSV-GFP [2]; human respiratory syncytial virus, HEp-2, 48 h, read-out: RSV-GFP inhibition (%), log Conc (uM) -0.25964, replicate values): 59.2%
inhibition at 0.5 µM (RSV-GFP [2]; [6]): 63.8%
inhibition at 0.45 µM (RSV-GFP [2]; human respiratory syncytial virus, HEp-2, 48 h, read-out: RSV-GFP inhibition (%), log Conc (uM) -0.34679, replicate values): 30.5%
inhibition at 0.4 µM (RSV-GFP [2]; human respiratory syncytial virus, HEp-2, 48 h, read-out: RSV-GFP inhibition (%), log Conc (uM) -0.39794, replicate values): 21.3%
inhibition at 0.35 µM (RSV-GFP [2]; human respiratory syncytial virus, HEp-2, 48 h, read-out: RSV-GFP inhibition (%), log Conc (uM) -0.45593, replicate values): 18.9%
inhibition at 0.3 µM (RSV-GFP [2]; human respiratory syncytial virus, HEp-2, 48 h, read-out: RSV-GFP inhibition (%), log Conc (uM) -0.52288, replicate values): 4.57%
inhibition at 0.2 µM (RSV-GFP [2]; human respiratory syncytial virus, HEp-2, 48 h, read-out: RSV-GFP inhibition (%), log Conc (uM) -0.69897, replicate values): 1.85%

CC(C)[C@@H]1NC(=O)[C@H](C)OC(=O)[C@@H](C(C)C)NC(=O)[C@@H](C(C)C)OC(=O)[C@H](C(C)C)NC(=O)[C@H](C)OC(=O)[C@@H](C(C)C)NC(=O)[C@@H](C(C)C)OC(=O)[C@H](C(C)C)NC(=O)[C@H](C)OC(=O)[C@@H](C(C)C)NC(=O)[C@@H](C(C)C)OC1=O [Valinomycin]
inhibition at 10 µM (RSV-GFP [1]): 88%
EC50 (RSV-GFP [2]; human respiratory syncytial virus): 39 nM
inhibition at 0.75 µM (RSV-GFP [2]; [6]): 74.6%
inhibition at 0.5 µM (RSV-GFP [2]; [6]): 71.6%
inhibition at 0.25 µM (RSV-GFP [2]; [6]): 78.6%
inhibition at 0.1 µM (RSV-GFP [2]; [6]): 76.7%
inhibition at 0.09 µM (RSV-GFP [2]; human respiratory syncytial virus, HEp-2, 48 h, read-out: RSV-GFP inhibition (%), log Conc (uM) -1.04576, replicate values): 77.4%
inhibition at 0.06 µM (RSV-GFP [2]; human respiratory syncytial virus, HEp-2, 48 h, read-out: RSV-GFP inhibition (%), log Conc (uM) -1.22185, replicate values): 71.2%
inhibition at 0.05 µM (RSV-GFP [2]; [6]): 77.4%

CC(C)=CCC/C(C)=C/CC/C(C)=C/CC/C(C)=C/COP(=O)(O)OP(=O)(O)O.N.N.N [GGPP, geranylgeranyl pyrophosphate ammonium salt]
restoration of F protein intensity (RSV A2 [3]; [7]): 33.4 ± 3.5%
restoration of N protein intensity (RSV A2 [3]; [7]): 50.4 ± 1.6%

O=c1cc(-c2ccccc2)oc2ccc(O)cc12 [6-Hydroxyflavone]
inhibition at 10 µM (RSV-GFP [1]): 74.1%
EC50 (RSV-GFP [2]; [5]): 705 nM
inhibition at 0.75 µM (RSV-GFP [2]; [6]): 56.1%
inhibition at 0.5 µM (RSV-GFP [2]; [6]): 36.6%
inhibition at 0.05 µM (RSV-GFP [2]; [6]): 11.4%

ML 141
Virus titre (log10 PFU/mL) (RSV A2 [4]): 5 log10 PFU/mL and 5.079 log10 PFU/mL and 5.176 log10 PFU/mL and 5.204 log10 PFU/mL

C[C@H]1O[C@@H](O[C@H]2[C@@H](O)C[C@H](O[C@H]3[C@@H](O)C[C@H](O[C@H]4CC[C@@]5(C)[C@H](CC[C@@H]6[C@@H]5CC[C@]5(C)[C@@H](C7=CC(=O)OC7)CC[C@]65O)C4)O[C@@H]3C)O[C@@H]2C)C[C@H](O)[C@@H]1O [Digitoxin]
inhibition at 10 µM (RSV-GFP [1]): 98.8%
EC50 (RSV-GFP [2]; [5]): 11 nM
inhibition at 0.5 µM (RSV-GFP [2]; [6]): 99.9%
inhibition at 0.25 µM (RSV-GFP [2]; [6]): 98.6%
inhibition at […] (RSV-GFP [2]; human respiratory syncytial virus, HEp-2, 48 h, read-out: RSV-GFP inhibition (%), log Conc (uM) -0.75696, replicate values): 99.8%
inhibition at 0.1 µM (RSV-GFP [2]; [6]): 78.3%
inhibition at 0.05 µM (RSV-GFP [2]; [6]): 73%
inhibition at 0.04 µM (RSV-GFP [2]; human respiratory syncytial virus, HEp-2, 48 h, read-out: RSV-GFP inhibition (%), log Conc (uM) -1.39794, replicate values): 78.7%
inhibition at 0.03 µM (RSV-GFP [2]; human respiratory syncytial virus, HEp-2, 48 h, read-out: RSV-GFP inhibition (%), log Conc (uM) -1.52288, replicate values): 82%
inhibition at 0.02 µM (RSV-GFP [2]; human respiratory syncytial virus, HEp-2, 48 h, read-out: RSV-GFP inhibition (%), log Conc (uM) -1.69897, replicate values): 68.5%
inhibition at 0.01 µM (RSV-GFP [2]; [6]): 55%

CNc1nc(C)c(-c2nc(Nc3cccc(S(N)(=O)=O)c3)ncc2F)s1 [CDKI-73]
effect on RSV-GFP infection rate (RSV-GFP [2]; CDKI-73 0.5 µM or 1.0 µM): did not reduce infection rate; also recorded: did not reduce RSV-GFP infection rates
RSV-GFP inhibition (%) (RSV-GFP [2]; CDKI-73 0.5 uM, replicate values): 15.9529% and 3.2849% and 2.901% and 0.6729%
RSV-GFP inhibition (%) (RSV-GFP [2]; CDKI-73 1 uM, replicate values): 5.404% and 7.553% and -1.2228% and 1.11%

C[C@]12CC[C@@H]3c4ccc(O)cc4CC[C@H]3[C@@H]1CC[C@@H]2O [Estradiol, 17β-Estradiol]
inhibition at 10 µM (RSV-GFP [1]): 70.7%
EC50 (RSV-GFP [2]; [5]): 1620 nM
inhibition at 0.5 µM (RSV-GFP [2]; [6]): 7.41%

C#C[C@]1(O)CC[C@H]2[C@@H]3CCC4=CC(=O)CC[C@@H]4[C@H]3CC[C@@]21C [Norethindrone, 19-Norethindrone]
inhibition at 10 µM (RSV-GFP [1]): 75.2%
EC50 (RSV-GFP [2]; [5]): 705 nM
inhibition at 0.8 µM (RSV-GFP [2]; human respiratory syncytial virus, HEp-2, 48 h, read-out: RSV-GFP inhibition (%), log Conc (uM) -0.09691, replicate values): 61.9%
inhibition at 0.6 µM (RSV-GFP [2]; human respiratory syncytial virus, HEp-2, 48 h, read-out: RSV-GFP inhibition (%), log Conc (uM) -0.22185, replicate values): 41.8%
inhibition at 0.5 µM (RSV-GFP [2]; [6]): 19.2%
